The experiment has as its system HT-29 cells. In words: number of colonies of HT-29 cells after gamma ionizing radiation. It counts as cell-based. To be noted: FIG. 3. The text has this:
For instance, lipid peroxidation levels of HT-29 by TBAR assay is protected by OPP against 800 and 1600 rads HT-29, as illustrated in graph of FIG. 2. […] Out of the three preparations, number of colonies of HT-29 is highest in case of de-phenolics.

`O=C(O)C1=C[C@@H](O)[C@@H](O)[C@H](O)C1` [shikimic acid]: the number of colonies entry is “abruptly increases”.

The values are drawn from patent publication US20190022041A1, “OIL PALM PHENOLICS COMPOSITION FOR THE PROTECTION OF HUMANS, ORGANS, CELLS AND TISSUES AGAINST THE INJURIOUS EFFECTS OF EXPOSURE TO IONIZING RADIATION” (Malaysian Palm Oil Board, priority 2015, published 2019).
